According to US12171230B2, “Herbicidal compositions” (Bayer Aktiengesellschaft, priority 2018, dated 2024):

Legend:
Type in all cases: in vivo
Viola tricolor [1] = assay: Post-emergence herbicidal action against Viola tricolor
Galium aparine = assay: Post-emergence herbicidal action against Galium aparine
Procedure: (§1) When the observed efficacies exceed the formal sum total of the values of the tests with individual applications, they also exceed the expected value according to Colby, which is calculated using the formula below and is likewise regarded as an indication of synergism (cf. S. R. Colby; in Weeds 15 (1967) p. 20 to 22): E^C=A+B−([…])
(§2) Here: • A=efficacy of the active compound (A) in % at an application rate of a g a.i./ha; • B=efficacy of the active compound (B) in % at an application rate of b g a.i./ha; • E^C=expected value of the effect of the combination (A)+(B) in % at the combined application rate a+b g a.i./ha.
(§3) Seeds or rhizome pieces of mono- and dicotyledonous weeds are placed in sandy loam in pots, covered with soil and grown in a greenhouse under good growth conditions (temperature, air humidity, water supply). Three weeks after sowing, the test plants were treated at the three-leaf stage with the compositions according to the invention. The compositions according to the invention formulated as spray powders or as emulsion concentrates were sprayed onto the green plant parts in various dosages with an application rate of 300 to 800 l/ha of water (equivalent). After the test plants have been left to stand in the greenhouse under optimal growth conditions for about 3 to 4 weeks, the action of the preparations is scored visually in comparison to untreated controls. The compositions according to the invention also have good post-emergence herbicidal activity against a broad spectrum of economically important gramineous and broadleaf weeds.

Matricaria inodora = assay: Post-emergence herbicidal action against Matricaria inodora; details: for Herbicidal action: 450 g a.i./ha
Phalaris minor [2] = assay: Post-emergence herbicidal action against Phalaris minor
Centaurea cyano = assay: Post-emergence herbicidal action against Centaurea cyano
Procedure: Seeds or rhizome pieces of mono- and dicotyledonous weeds are placed in sandy loam in pots, covered with soil and grown in a greenhouse under good growth conditions (temperature, air humidity, water supply). Three weeks after sowing, the test plants were treated at the three-leaf stage with the compositions according to the invention. The compositions according to the invention formulated as spray powders or as emulsion concentrates were sprayed onto the green plant parts in various dosages with an application rate of 300 to 800 l/ha of water (equivalent).

Poa annua = assay: Post-emergence herbicidal action against Poa annua; details: for Herbicidal action: 14 DAT
Procedure: as §1, §2, §3

Lolium rigidum [3] = assay: Post-emergence herbicidal action against Lolium rigidum
Bromus sterilis [4] = assay: Post-emergence herbicidal action against Bromus sterilis; details: 14 DAT; 50 g a.i./ha
Alopecurus myosuroides = assay: Post-emergence herbicidal action against Alopecurus myosuroides
Viola tricolor [5] = assay: Post-emergence herbicidal action against Viola tricolor; details: 5 g of a.i./ha
Phalaris minor [6] = assay: Post-emergence herbicidal action against Phalaris minor; remark: listed apart in the source
Bromus sterilis [7] = assay: Post-emergence herbicidal action against Bromus sterilis
Lolium rigidum [8] = assay: Post-emergence herbicidal action against Lolium rigidum; remark: listed apart in the source
[9] = tested on: Lolium rigidum (resistant biotype); assay: Post-emergence herbicidal action against Lolium rigidum (resistant biotype)
Lamium purpureum = assay: Post-emergence herbicidal action against Lamium purpureum; details: 45 g of a.i./ha
Procedure: as §1, §2, §3

CP(=O)(O)CCC(N)C(=O)O (stereo not drawn) [(7.4) Glufosinate]
Herbicidal action (Viola tricolor [1]; 14 DAT, 150 g a.i./ha): 80%
Herbicidal action (Viola tricolor [1]; 28 DAT, 50 g a.i./ha): 20%
Herbicidal action (Viola tricolor [1]; 28 DAT, 150 g a.i./ha): 50%
Herbicidal action (Viola tricolor [1]; 28 DAT, 450 g a.i./ha): 60%
Herbicidal action (Galium aparine; 28 DAT, 50 g a.i./ha): 0%
Herbicidal action (Matricaria inodora; 14 DAT): 90%
Herbicidal action (Matricaria inodora; 28 DAT): 85%
Herbicidal action (Phalaris minor [2]; 14 DAT, 50 g a.i./ha): 0%
Herbicidal action (Phalaris minor [2]; 14 DAT, 150 g a.i./ha): 30%
Herbicidal action (Phalaris minor [2]; 28 DAT, 50 g a.i./ha): 0%
Herbicidal action (Phalaris minor [2]; 28 DAT, 150 g a.i./ha): 10%
Herbicidal action (Phalaris minor [2]; 28 DAT, 450 g a.i./ha): 30%
Herbicidal action (Centaurea cyano; 14 DAT, 50 g a.i./ha): 30%
Herbicidal action (Centaurea cyano; 28 DAT, 450 g a.i./ha): 60%
Herbicidal action (Poa annua; 50 g a.i./ha): 10%
Herbicidal action (Poa annua; 150 g a.i./ha): 30%
Herbicidal action (Poa annua; 450 g a.i./ha): 40%
Herbicidal action (Lolium rigidum [3]; 14 DAT, 150 g a.i./ha): 50%
Herbicidal action (Lolium rigidum [3]; 14 DAT, resistant biotype, 150 g a.i./ha): 30%
Herbicidal action (Lolium rigidum [3]; 28 DAT, 150 g a.i./ha): 30%
Herbicidal action (Lolium rigidum [3]; 28 DAT, resistant biotype, 150 g a.i./ha): 30%
Herbicidal action (Lolium rigidum [3]; 28 DAT, resistant biotype, 450 g a.i./ha): 50%
Herbicidal action (Bromus sterilis [4]): 0%

Cc1nn(-c2cc(CC(Cl)C(=O)O)c(Cl)cc2F)c(=O)n1C(F)F (stereo not drawn) [(B4.8) Carfentrazone]
Herbicidal action in [%] 28 DAT against Galium aparine (Galium aparine; 5 g of a.i./ha): 70%
Herbicidal action in [%] 28 DAT against Galium aparine (Galium aparine; 15 g of a.i./ha): 80%
Herbicidal action in [%] 14 DAT against Matricaria inodora (Matricaria inodora; 5 g of a.i./ha): 25%
Herbicidal action in [%] 14 DAT against Alopecurus myosuroides (Alopecurus myosuroides; 5 g of a.i./ha): 0%
Herbicidal action in [%] 14 DAT against Alopecurus myosuroides (Alopecurus myosuroides; 15 g of a.i./ha): 0%
Herbicidal action in [%] 28 DAT against Alopecurus myosuroides (Alopecurus myosuroides; 15 g of a.i./ha): 0%
Herbicidal action in [%] 14 DAT against Alopecurus myosuroides (Alopecurus myosuroides; 15 g of a.i./ha, second 14 DAT block): 15%
Herbicidal action in [%] 14 DAT against Alopecurus myosuroides (Alopecurus myosuroides; 45 g of a.i./ha): 25%
Herbicidal action in [%] 28 DAT against Alopecurus myosuroides (Alopecurus myosuroides; 45 g of a.i./ha): 20%
Herbicidal action in [%] 14 DAT against Alopecurus myosuroides (Alopecurus myosuroides; 45 g of a.i./ha, second 14 DAT block): 35%
Herbicidal action in [%] 28 DAT against Viola tricolor (Viola tricolor [5]): 80%
Herbicidal action in [%] 14 DAT against Phalaris minor (Phalaris minor [6]; 15 g of a.i./ha): 15%
Herbicidal action in [%] 28 DAT against Phalaris minor (Phalaris minor [6]; 15 g of a.i./ha): 0%
Herbicidal action in [%] 14 DAT against Phalaris minor (Phalaris minor [6]; 45 g of a.i./ha): 20%
Herbicidal action in [%] 28 DAT against Phalaris minor (Phalaris minor [6]; 45 g of a.i./ha): 10%
Herbicidal action in [%] 14 DAT against Poa annua L. (Poa annua; 5 g of a.i./ha): 0%
Herbicidal action in [%] 14 DAT against Poa annua L. (Poa annua; 15 g of a.i./ha): 0%
Herbicidal action in [%] 28 DAT against Poa annua L. (Poa annua; 15 g of a.i./ha): 0%
Herbicidal action in [%] 14 DAT against Poa annua L. (Poa annua; 45 g of a.i./ha): 10%
Herbicidal action in [%] 28 DAT against Poa annua L. (Poa annua; 45 g of a.i./ha): 20%
Herbicidal action in [%] 14 DAT against Bromus sterilis (Bromus sterilis [7]; 15 g of a.i./ha): 20%
Herbicidal action in [%] 28 DAT against Bromus sterilis (Bromus sterilis [7]; 15 g of a.i./ha): 15%
Herbicidal action in [%] 14 DAT against Bromus sterilis (Bromus sterilis [7]; 45 g of a.i./ha): 30%
Herbicidal action in [%] 28 DAT against Bromus sterilis (Bromus sterilis [7]; 45 g of a.i./ha): 35%
Herbicidal action in [%] 28 DAT against Lolium rigidum (Lolium rigidum [8]; 15 g of a.i./ha): 0%
Herbicidal action in [%] 28 DAT against Lolium rigidum (Lolium rigidum [8]; 45 g of a.i./ha): 20%
Herbicidal action in [%] 14 DAT against Lolium rigidum (resistant biotype) ([9]; 15 g of a.i./ha): 10%
Herbicidal action in [%] 28 DAT against Lolium rigidum (resistant biotype) ([9]; 15 g of a.i./ha): 0%
Herbicidal action in [%] 14 DAT against Lolium rigidum (resistant biotype) ([9]; 45 g of a.i./ha): 25%
Herbicidal action in [%] 28 DAT against Lolium rigidum (resistant biotype) ([9]; 45 g of a.i./ha): 20%
Herbicidal action in [%] 28 DAT against Lamium purpureum L. (Lamium purpureum): 80%
